One molecule from article PMC9697614, “Rufinamide, a Triazole-Derived Antiepileptic Drug, Stimulates Ca^2+-Activated K^+ Currents While Inhibiting Voltage-Gated Na^+ Currents” (International Journal of Molecular Sciences, 2022) can be followed below.

What is called EC50 is the concentration that produces a half-maximal response. A higher EC50 goes with lower potency in that assay.

For this assay, the target named is T1, large-conductance Ca2+-activated K+ channel (BKCa, KCa1.1, KCNMA1, Slo1) (Rattus norvegicus, UniProt Q62976).
T1 construct: native channel in pituitary GH3 cells
Description: patch clamp: inside-out single-channel recordings (RFM on cytosolic face) and whole-cell IK(Ca) concentration-response. It is filed as cell-based. On the technique in general: In patch-clamp work, channel activity is measured electrically.

T1 sequence (Q62976 whole entry): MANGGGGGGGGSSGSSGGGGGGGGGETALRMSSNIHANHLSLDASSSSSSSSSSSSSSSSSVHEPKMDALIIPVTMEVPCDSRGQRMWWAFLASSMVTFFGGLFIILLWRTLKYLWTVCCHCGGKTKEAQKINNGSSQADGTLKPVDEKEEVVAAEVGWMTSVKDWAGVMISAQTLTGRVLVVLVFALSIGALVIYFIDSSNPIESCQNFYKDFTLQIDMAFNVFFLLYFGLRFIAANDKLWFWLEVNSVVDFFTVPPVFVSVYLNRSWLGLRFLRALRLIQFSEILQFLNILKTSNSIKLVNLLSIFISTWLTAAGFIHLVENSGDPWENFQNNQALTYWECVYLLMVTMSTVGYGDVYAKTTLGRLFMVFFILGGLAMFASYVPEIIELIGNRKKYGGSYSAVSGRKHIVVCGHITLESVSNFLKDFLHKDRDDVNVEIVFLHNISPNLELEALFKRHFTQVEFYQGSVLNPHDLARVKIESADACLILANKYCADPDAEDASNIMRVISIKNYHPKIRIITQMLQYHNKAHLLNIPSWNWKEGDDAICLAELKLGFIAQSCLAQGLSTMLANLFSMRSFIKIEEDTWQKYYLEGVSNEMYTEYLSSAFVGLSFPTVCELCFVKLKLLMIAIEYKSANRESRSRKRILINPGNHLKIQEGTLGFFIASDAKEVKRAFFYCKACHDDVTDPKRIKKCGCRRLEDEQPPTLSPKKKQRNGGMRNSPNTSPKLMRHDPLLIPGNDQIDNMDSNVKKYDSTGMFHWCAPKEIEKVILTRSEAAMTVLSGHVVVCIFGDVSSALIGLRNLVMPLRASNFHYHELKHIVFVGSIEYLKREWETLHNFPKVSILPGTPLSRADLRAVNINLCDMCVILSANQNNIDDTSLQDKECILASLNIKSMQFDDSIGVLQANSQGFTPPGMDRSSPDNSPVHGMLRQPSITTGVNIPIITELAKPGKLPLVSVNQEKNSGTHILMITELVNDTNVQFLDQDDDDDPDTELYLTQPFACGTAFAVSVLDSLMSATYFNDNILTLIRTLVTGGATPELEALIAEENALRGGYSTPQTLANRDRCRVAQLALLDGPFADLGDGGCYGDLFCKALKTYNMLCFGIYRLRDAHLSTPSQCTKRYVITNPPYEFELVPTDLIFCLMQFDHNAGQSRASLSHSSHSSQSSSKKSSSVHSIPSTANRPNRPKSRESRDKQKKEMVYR

Molecule `NC(=O)c1cn(Cc2c(F)cccc2F)nn1` [RFM, 1-((2,6-difluorophenyl)methyl)-1H-1,2,3-triazole-4carboxamide] had a half-maximal effective concentration (EC50) of 3.9 µM.
